Measurements from PMC11783601, “Analogue-Sensitive Inhibition of Histone Demethylases Uncovers Member-Specific Function in Ribosomal Protein Synthesis” (Journal of the American Chemical Society, 2025).

Target: T1, asKDM4A (HA-tagged F185A) in HEK293T cells (Homo sapiens, UniProt O75164, F185A)
T1 construct: we generated the F185A mutation in full-length KDM4A carrying all of the functional domains; host or cells: HEK293T
T1 sequence (O75164 1-1064 F185A): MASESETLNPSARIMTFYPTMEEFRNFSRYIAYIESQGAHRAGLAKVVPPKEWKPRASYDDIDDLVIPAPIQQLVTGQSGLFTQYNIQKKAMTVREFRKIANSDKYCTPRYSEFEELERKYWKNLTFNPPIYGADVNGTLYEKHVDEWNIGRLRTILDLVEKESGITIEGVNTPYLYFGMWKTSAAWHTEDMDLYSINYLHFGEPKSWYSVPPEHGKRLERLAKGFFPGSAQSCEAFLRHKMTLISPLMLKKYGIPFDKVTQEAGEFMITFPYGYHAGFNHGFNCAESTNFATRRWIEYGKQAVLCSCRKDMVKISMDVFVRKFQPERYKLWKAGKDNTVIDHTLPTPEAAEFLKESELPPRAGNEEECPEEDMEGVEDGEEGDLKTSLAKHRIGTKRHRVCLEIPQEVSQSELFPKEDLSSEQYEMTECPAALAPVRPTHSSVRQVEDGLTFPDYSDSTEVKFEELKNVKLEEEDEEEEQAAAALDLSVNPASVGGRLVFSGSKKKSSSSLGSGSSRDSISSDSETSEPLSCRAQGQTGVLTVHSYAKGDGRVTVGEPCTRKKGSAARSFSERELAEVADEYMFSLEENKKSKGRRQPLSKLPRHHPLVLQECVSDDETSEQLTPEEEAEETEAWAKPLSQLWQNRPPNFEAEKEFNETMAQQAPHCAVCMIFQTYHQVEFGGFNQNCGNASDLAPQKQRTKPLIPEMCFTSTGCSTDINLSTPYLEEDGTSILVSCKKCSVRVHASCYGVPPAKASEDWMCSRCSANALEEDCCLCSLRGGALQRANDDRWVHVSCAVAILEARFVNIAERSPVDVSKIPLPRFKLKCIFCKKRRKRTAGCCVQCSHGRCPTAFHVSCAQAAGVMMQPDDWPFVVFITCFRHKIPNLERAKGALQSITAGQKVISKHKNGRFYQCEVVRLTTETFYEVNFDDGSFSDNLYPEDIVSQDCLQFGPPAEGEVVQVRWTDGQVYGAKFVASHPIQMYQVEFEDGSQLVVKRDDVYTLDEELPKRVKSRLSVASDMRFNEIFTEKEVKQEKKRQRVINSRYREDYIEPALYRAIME
Test: Time-dependent treatment and withdrawal of inhibitor, fixed cell imaging of H3K9me3 and BrdU
Format: cell-based
Experimental: We exploited the reversible mode of action of the allele-specific inhibitor to gain further insights into the temporal regulation of rRNA expression by histone demethylation. We reasoned that withdrawal of the reversible inhibitor from the cell-culture medium would restore the activity of asKDM4A in a temporally defined manner (Figure 8A). HEK293T cells expressing the F185A variant carrying an HA tag were treated with 6B and fixed at various time points. H3K9me3 levels were quantified in HA-positive cells to ensure that only cells with asKDM4A were considered for analysis. Within 3 h of compound treatment, a robust level of H3K9me3 ensued (Figure 8B). Subsequently, the same cells were allowed to grow in inhibitor-free media and examined for histone demethylation by fixed cell imaging.
To investigate if the restoration of H3K9me3 demethylation is directly linked to rRNA activation, cells overexpressing asKDM4A were first treated with 6B for 3 h followed by compound removal and brief exposure to 5FU before being fixed at different time points for immunofluorescence imaging (Figure 8A,C). […] We recorded a steady recovery of BrdU signal, reaching its maximum within 4–5 h postwithdrawal (equivalent to no 6B treatment) (Figure 8C), consistent with reactivation of asKDM4A as observed above. A relatively sluggish 5FU incorporation into rRNA (Figure 8C), compared to the rapid histone demethylation (Figure 8B), is likely due to the time required to assemble active transcriptional machinery at the rRNA promoters following the removal of the silencing H3K9me3 mark. Achieving such precise temporal control of protein function would be challenging using genetic tools. Collectively, employing the mutant and cognate inhibitor pair, we mapped a highly dynamic signaling pathway linking KDM4A-mediated locus-specific histone demethylation with upregulation of rRNA expression to modulate downstream processes such as ribosomal assembly and protein synthesis. […]
19. Fixed cell immunofluorescence staining
Cells were grown on poly-D-lysine (Gibco A3890401) treated glass coverslips (ThermoScientific 12-545-81P) overnight and transfected the next day with 300 ng KDM4A WT/F185A using […] of lipofectamine 2000 (Invitrogen 11668019). The cells were incubated overnight and treated with indicated inhibitor at varying time points. When probing rRNA transcription, cells were incubated with 2 mM 5-Fluorouridine (Sigma F5130) for 15 minutes. Cells were washed three times with phosphate buffered saline (PBS) at pH 7.6 (Corning 21040CV), fixed with 2% paraformaldehyde in PBS (ThermoFisher AAJ19943K2) for 15 minutes at room temperature, washed with PBS three times, and permeabilized with 0.1% tritonX (Fisher BP151-100) in PBS for 15 minutes. Next, coverslips were blocked with 2% Bovine Serum Albumin (BSA Fisher BP1600-100) in PBS for 1 hour at room temperature, coverslips were incubated with primary antibody diluted in 0.5% BSA PBS (anti-H3K9me3: Cell Signaling Technology cat: 13969S host:rabbit 1:1000; anti-HA: Cell Signaling Technology host:mouse, cat: 2367S or host:rabbit, cat: […]
hour at room temperature, then incubated with secondary antibodies diluted in 0.5% BSA PBS (anti-mouse—488: Invitrogen host: goat, cat: A-11001 or anti-rabbit—cy3: Invitrogen host: goat, […]
cat: A10520, both dilutions 1:1000), between each step coverslips were washed five times with 0.5% BSA PBS. The nuclei were stained with Hoechst stain 0.01 mg/mL in H2O (Sigma B2883-25MG) for 30 seconds, washed with PBS and finally adhered to a slide with gelvatol. The cells were imaged at University of Pittsburgh Center for Biological Imaging on an Olympus Fluoview […]
20. Quantification of fixed-cell imaging data
TIF images obtained from confocal microscopy experiments were quantified in ImageJ. Images were converted to 8-bit images and then thresholded to remove background signal. All images within the same experiment used the same threshold values. For concentration dependent imaging […]

[1] = HEK293T cells expressing KDM4A-F185A, 6B for 3 h then withdrawal

CC(C)CC(NC(=O)C(=O)OCc1cccc(C(F)(F)F)c1)C(=O)O [6B, L-Leu TFMB-ester NOG]
time of compound treatment until a robust level of H3K9me3 ensued (HA-positive HEK293T cells expressing F185A): up to 3 h | 5FU incorporation after compound withdrawal [1]: gradual increase in 5FU incorporation | H3K9me3 after compound withdrawal [1]: rapid H3K9me3 demethylation | time postwithdrawal until BrdU signal reached its maximum (after 3 h 6B treatment and removal, equivalent to no 6B treatment): 4 to 5 h | BrdU signal (5FU incorporation) (cells overexpressing asKDM4A treated with 6B for 3 h): significant decrease in BrdU signal | time after compound removal until asKDM4A regained its demethylase activity (inhibitor-free media, activity increased for up to 3 h): ≤ 1 h
